Data on eight compounds can be found in patent US10941157B2, “Pesticidal compositions and uses thereof” (Gilead Apollo, LLC, priority 2015, dated 2021).

Holding throughout (format): cell-based
In experiment [1] the test system is Phytophthora capsici (Pc). Nature of the experiment: In vitro pathogen growth inhibition assay, Pc. To be noted: 48 h. The gist of the method:
(§1)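 Value reported is the compound concentration reaching ≥90% growth inhibition, from OD readings at 24 and 48 h after blank subtraction, confirmed visually. Inoculum was spores diluted in 17% V8 medium, except Rs, using 1.5 mm mycelial plugs in ¼ PDB; actual compound concentration corrected via OD600.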

Experiment [2] has as its system Collectotrichum graminicola (Cg). Nature of the experiment: In vitro pathogen growth inhibition assay, Cg. The conditions noted are these: 48 h. An outline of the steps: (§2)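 Spores in 17% V8 liquid medium, or 1.5 mm Rs mycelial plugs in ¼ PDB, incubated with compound; final concentration checked by OD600 for precipitation. OD readings at 24 and 48 h, blank-subtracted, plus visual ratings; value is concentration giving ≥90% growth inhibition.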

The subject of another experiment is Diplodia maydis (Dm). Nature of the experiment: In vitro pathogen growth inhibition assay, Dm. The conditions noted are these: Stenocarpella maydis, 48 h. The gist of the method:
as §1

Experiment [3] deals with Fusarium virguliforme (Fv). As to the kind of experiment: In vitro pathogen growth inhibition assay, Fv. An outline of the steps: as §1
The subject of the next experiment is Botrtyis cinerea (Bc). Nature of the experiment: In vitro pathogen growth inhibition assay, Bc. The conditions noted are these: 48 h. An outline of the steps:
as §2

The subject of another experiment is Septoria tritici (St). Nature of the experiment: In vitro pathogen growth inhibition assay, St. The conditions noted are these: Zymoseptoria tritici, 48 h. An outline of the steps:
as §2

For a further experiment, the system named is Rhizoctonia solani (Rs). As to the kind of experiment: In vitro pathogen growth inhibition assay, Rs (mycelial plugs). The conditions noted are these: Rhizoctonia solani, 48 h. The gist of the method:
as §1

Experiment [4] concerns Fusarium moniliforme (Fm). Nature of the experiment: In vitro pathogen growth inhibition assay, Fm. The conditions noted are these: Fusarium verticillioides. The gist of the method: as §2
[5] abbreviates: concentration sufficient to ≥90% inhibition of growth, 48 hours vs 2% DMSO control, read-out: Compound Concentration (ppm) for ≥90% inhibition, Pc.
[6] abbreviates: concentration sufficient to ≥90% inhibition of growth, 48 hours vs 2% DMSO control, read-out: Compound Concentration (ppm) for ≥90% inhibition, Cg.
Where [7] appears, read: concentration sufficient to ≥90% inhibition of growth, 48 hours vs 2% DMSO control, read-out: Compound Concentration (ppm) for ≥90% inhibition, Dm.
Where [8] appears, read: concentration sufficient to ≥90% inhibition of growth, 48 hours vs 2% DMSO control, read-out: Compound Concentration (ppm) for ≥90% inhibition, Fv.
Setting [9] is: concentration sufficient to ≥90% inhibition of growth, 48 hours vs 2% DMSO control, read-out: Compound Concentration (ppm) for ≥90% inhibition, Bc.
The mark [10] stands for this setting: concentration sufficient to ≥90% inhibition of growth, 48 hours vs 2% DMSO control, read-out: Compound Concentration (ppm) for ≥90% inhibition, St.
[11] abbreviates: concentration sufficient to ≥90% inhibition of growth, 48 hours vs 2% DMSO control, read-out: Compound Concentration (ppm) for ≥90% inhibition, Rs.
[12] abbreviates: concentration sufficient to ≥90% inhibition of growth, 48 hours vs 2% DMSO control, read-out: Compound Concentration (ppm) for ≥90% inhibition, Fm.
[13] abbreviates: ≥90% growth inhibition, 48 hours, vs 2% DMSO control, read-out: Compound Concentration (ppm) sufficient for ≥90% inhibition of Pc.
Setting [14] is: ≥90% growth inhibition, 48 hours, vs 2% DMSO control, read-out: Compound Concentration (ppm) sufficient for ≥90% inhibition of Cg.
Setting [15] is: ≥90% growth inhibition, 48 hours, vs 2% DMSO control, read-out: Compound Concentration (ppm) sufficient for ≥90% inhibition of Dm.
[16] abbreviates: ≥90% growth inhibition, 48 hours, vs 2% DMSO control, read-out: Compound Concentration (ppm) sufficient for ≥90% inhibition of Fv.
Setting [17] is: ≥90% growth inhibition, 48 hours, vs 2% DMSO control, read-out: Compound Concentration (ppm) sufficient for ≥90% inhibition of Bc.
Setting [18] is: ≥90% growth inhibition, 48 hours, vs 2% DMSO control, read-out: Compound Concentration (ppm) sufficient for ≥90% inhibition of St.
The mark [19] stands for this setting: ≥90% growth inhibition, mycelial plugs, 48 hours, vs 2% DMSO control, read-out: Compound Concentration (ppm) sufficient for ≥90% inhibition of Rs.
The mark [20] stands for this setting: ≥90% growth inhibition, 48 hours, vs 2% DMSO control, read-out: Compound Concentration (ppm) sufficient for ≥90% inhibition of Fm.

≈ marks a conversion by molar mass, not a printed value. Like-named read-outs stand apart in the source and are kept apart here. Where only a bound is given, the exact number is not on record here.

On to `COc1ccc(F)cc1[C@H](Cn1c(=O)n(C(C)(C)C(=O)NC(C)C)c(=O)c2c(C)c(-n3nccn3)sc21)OCCN(C)C` [Compound I-173], for which the IC90 in experiment [1] (setting [5]) is above 50 µg/mL; in experiment [2] (setting [6]) it was at least 50 µg/mL; in the experiment with Diplodia maydis (Dm) (setting [7]), above 50 µg/mL; in experiment [3] (setting [8]) it was above 50 µg/mL; with Botrtyis cinerea (Bc) (setting [9]), 50 µg/mL (≈ 81.2 µM); in the experiment on Septoria tritici (St) (setting [10]) it was above 50 µg/mL. Also, the IC90 in the experiment on Rhizoctonia solani (Rs) (setting [11]) was found to be 10 µg/mL (≈ 16.2 µM); in experiment [4] (setting [12]), 50 µg/mL (≈ 81.2 µM).
Take `CCOC(=O)c1sc2c(c1C)c(=O)n(C(C)(C)C(N)=O)c(=O)n2C[C@H](OC1CCOCC1)c1ccccc1OC` [Compound I-174]: the IC90 in experiment [1] (setting [5]) was above 50 µg/mL; in experiment [2] (setting [6]), 50 µg/mL (≈ 87.2 µM); with Diplodia maydis (Dm) (setting [7]), 10 µg/mL (≈ 17.4 µM); in experiment [3] (setting [8]) it was 10 µg/mL (≈ 17.4 µM); with Botrtyis cinerea (Bc) (setting [9]), 10 µg/mL (≈ 17.4 µM); in the experiment with Septoria tritici (St) (setting [10]), above 50 µg/mL. Further, the IC90 with Rhizoctonia solani (Rs) (setting [11]) was determined as 50 µg/mL (≈ 87.2 µM); in experiment [4] (setting [12]), 10 µg/mL (≈ 17.4 µM).
Turning to `CCNC(=O)C(C)(C)n1c(=O)c2c(C)c(C(=O)OCC)sc2n(C[C@H](OC2CCOCC2)c2ccccc2OC)c1=O` [Compound I-175], the IC90 in experiment [1] (setting [5]) was above 50 µg/mL; in experiment [2] (setting [6]), 50 µg/mL (≈ 83.1 µM); in the experiment on Diplodia maydis (Dm) (setting [7]), 10 µg/mL (≈ 16.6 µM); in experiment [3] (setting [8]) it was 10 µg/mL (≈ 16.6 µM); in the experiment with Botrtyis cinerea (Bc) (setting [9]), 2 µg/mL (≈ 3.32 µM); with Septoria tritici (St) (setting [10]) it was above 50 µg/mL. The IC90 in the experiment with Rhizoctonia solani (Rs) (setting [11]) was above 50 µg/mL; in experiment [4] (setting [12]) it was 10 µg/mL (≈ 16.6 µM).
`CCOC(=O)c1sc2c(c1C)c(=O)n(C(C)(C)C(=O)NC(C)C)c(=O)n2C[C@H](OCCOC)c1cc(F)ccc1OC` [Compound I-177]: the IC90 in experiment [1] (setting [13]) was above 50 µg/mL; in experiment [2] (setting [14]) it was 2 µg/mL (≈ 3.29 µM); with Diplodia maydis (Dm) (setting [15]), 2 µg/mL (≈ 3.29 µM); in experiment [3] (setting [16]), 0.4 µg/mL (≈ 0.658 µM); with Botrtyis cinerea (Bc) (setting [17]), 2 µg/mL (≈ 3.29 µM); in the experiment on Septoria tritici (St) (setting [18]), above 50 µg/mL. Moreover, the IC90 is 10 µg/mL (≈ 16.5 µM) with Rhizoctonia solani (Rs) (setting [19]) and 0.08 µg/mL (≈ 0.132 µM) in experiment [4] (setting [20]).
For the compound `CCOC(=O)c1sc2c(c1C)c(=O)n(C(C)(C)C(=O)N1CCCC1)c(=O)n2C[C@H](OCCO)c1cc(F)ccc1OC` [Compound I-178], the IC90 is above 50 µg/mL in experiment [1] (setting [13]); at least 0.4 µg/mL in experiment [2] (setting [14]); 2 µg/mL (≈ 3.3 µM) in the experiment on Diplodia maydis (Dm) (setting [15]); 2 µg/mL (≈ 3.3 µM) in experiment [3] (setting [16]); 2 µg/mL (≈ 3.3 µM) with Botrtyis cinerea (Bc) (setting [17]); at least 50 µg/mL in the experiment with Septoria tritici (St) (setting [18]). The IC90 (with Rhizoctonia solani (Rs) (setting [19]); in experiment [4] (setting [20])) was 0.4 µg/mL (≈ 0.66 µM) throughout.
Turning to `CCOC(=O)c1sc2c(c1C)c(=O)n(C(C)(C)C(=O)N1CCCC1)c(=O)n2C[C@H](OCCOC)c1cc(F)ccc1OC` [Compound I-179], the IC90 in experiment [1] (setting [13]) was above 50 µg/mL; in experiment [2] (setting [14]), at least 2 µg/mL; with Diplodia maydis (Dm) (setting [15]) it was 10 µg/mL (≈ 16.1 µM); in experiment [3] (setting [16]) it was above 2 µg/mL; in the experiment on Botrtyis cinerea (Bc) (setting [17]), 2 µg/mL (≈ 3.23 µM); in the experiment on Septoria tritici (St) (setting [18]), above 50 µg/mL. For the same compound, the IC90 in the experiment with Rhizoctonia solani (Rs) (setting [19]) was found to be 10 µg/mL (≈ 16.1 µM); in experiment [4] (setting [20]) it was 0.4 µg/mL (≈ 0.645 µM).
As to `CCOC(=O)c1sc2c(c1C)c(=O)n(C(C)(C)C(N)=O)c(=O)n2C[C@H](OCCC#N)c1cc(F)ccc1OC` [Compound I-180], the IC90 in experiment [1] (setting [13]) was above 50 µg/mL; in experiment [2] (setting [14]), 50 µg/mL (≈ 89.2 µM); in the experiment with Diplodia maydis (Dm) (setting [15]), above 50 µg/mL; in experiment [3] (setting [16]), 10 µg/mL (≈ 17.8 µM); in the experiment on Botrtyis cinerea (Bc) (setting [17]) it was 2 µg/mL (≈ 3.57 µM); in the experiment with Septoria tritici (St) (setting [18]) it was above 50 µg/mL. Besides, the IC90 with Rhizoctonia solani (Rs) (setting [19]) was found to be 10 µg/mL (≈ 17.8 µM); in experiment [4] (setting [20]) it was 0.4 µg/mL (≈ 0.714 µM).
As for `CCOC(=O)c1sc2c(c1C)c(=O)n(C(C)(C)C(=O)N1CCCC1)c(=O)n2C[C@H](OCCC#N)c1cc(F)ccc1OC` [Compound I-182], the IC90 in experiment [1] (setting [13]) was above 50 µg/mL; in experiment [2] (setting [14]), 2 µg/mL (≈ 3.25 µM); in the experiment with Diplodia maydis (Dm) (setting [15]), 2 µg/mL (≈ 3.25 µM); in experiment [3] (setting [16]) it was 2 µg/mL (≈ 3.25 µM); with Botrtyis cinerea (Bc) (setting [17]), 2 µg/mL (≈ 3.25 µM); in the experiment on Septoria tritici (St) (setting [18]) it was above 50 µg/mL. The IC90 in the experiment on Rhizoctonia solani (Rs) (setting [19]) was 0.4 µg/mL (≈ 0.651 µM); in experiment [4] (setting [20]), 0.08 µg/mL (≈ 0.13 µM).
